{"source": "patent US7202280B2", "about": "“Methods for the treatment and prevention of pancreatitis and for induction of liver regeneration” (priority 2002, dated 2007)", "key": {"[1]": {"system": "syngenic and transgenic rats", "test": "Pancreatic SSAT activity and polyamine pools after zinc and methylspermidine", "type": "in vivo, rat", "protocol": "FIGS. 1a-1d. Pancreatic polyamine pools in syngenic and transgenic rats after zinc and methylspermidine. […] Three to five animals in each group. Me-spd, methylspermidine. The production of transgenic Wistar rats (UKUR30) and mice (UKU181) harboring metallothionein-SSAT fusion gene (Suppola, […]., Porter, C. W., and Jänne, J. (1999) Biochem. […] (2000) Proc. Natl. Acad. Sci. U.S.A. 97, 8290-8295; Lukkarinen, […]., and Alhonen, L. (1997) Stroke 28, 639-645). Partial hepatectomy was carried out according to the original method of Higgins and Anderson (Higgins, G. H., and Anderson, R. M. (1931) Arch. Pathol. 12, 186-202). Treatments before partial hepatectomy and the determination of DNA synthesis were carried out as in ([…]., Suppola, […]., and […]. Biol. Chem. 277, 39867-39872). Transgenic 10 weeks old male rats were injected twice with MDL72527 (50 mg/kg i.p.) at 16-h interval to inactivate PAO according to (Bolkenius, F. N., Bey, P., and Seiler, N. (1985) Biochim. Biophys. […] An aliquot of the homogenates was used for the polyamine assays. The homogenates were centrifuged (at 13 000×g, for 30 min, at 4° C.) and the supernatants were used for the enzyme activity assays. The Institutional Animal Care and Use Committee of the University of Kuopio and by the Provincial Government approved animal experiments. […] Merck (Darmstadt, Germany). […] The changes in pancreatic polyamine pools in response to zinc and methylspermidine are depicted in FIG. 1. […] The various treatments only marginally altered pancreatic putrescine pools (FIG. 1a). […] FIG. 1d depicts the accumulation of the analogue in the pancreas after a single dose or two doses."}, "[2]": {"system": "SSAT transgenic rats (UKUR30)", "test": "Treatment of zinc induced acute pancreatitis in SSAT transgenic rats: survival and severity (histology, plasma amylase, mortality)", "type": "in vivo, rat", "parameters": "key to Edema: 0 (absent); 1 (minimal); 4 (maximal)", "settings": "for Edema / Necr. / P-amyl: single animals", "protocol": "Formalin-fixed pancreatic specimens were embedded in paraffin, cut into 5-μm-thick slices, and stained with hematoxylin/eosin. The stained sections were coded and scored by the participating gastroenterologist (K.-H. H.) according to the method of Niederau et al. (Niederau, C., Liddle, R. A., Ferrell, L. D., and Grendell, J. H. (1986) J. Clin. Invest. 78, 1056–1063).\nTransgenic UKUR30 female rats (weighting about 200 g) were used for the experiments. Pancreatitis was initiated with zinc 10 mg/kg treatment. Experiments were separated in five different parts (Exp. 1–5). Animals treated with α-MeSPD received 50 mg/kg i.p at the indicated time point(s). The pooled data from all of the experiment is shown in tables 4 A/B/C/D. First histological signs of pancreatic failure were evident within 6 h after the zinc. Pancreatic failure steadily increases until 24 hours when the first animals died. Within 48 hours mortality was almost 70% in control zinc treated rats.\nTables 4 A/B/C/D present the natural course of zinc induced pancreatitis. Histological scoring along with plasma amylase activity is shown as a measure of severity of pancreatitis. Tissue zinc and polyamine levels and SSAT activity were determined to verify the response of each animal to the treatment. No other data than the number of death animals is shown from deceased animals. Transgenic UKUR30 female rats weighting about 200 grams were used for the experiment. Zinc was injected i.p. 10 mg/kg to initiate acute pancreatitis. Animals treated with MeSpd received one 50 mg/kg dosage i.p. at the indicated time point(s). At indicated time points live animals were sacrificed and pancreas was subjected to further analysis. […] Values for polyamines are expressed as pmoles/mg/wet weight. SSAT pmoles/10 min/mg wet weight."}, "[3]": {"settings": "Zn 24 h, MeSpd 50 mg/kg i.p. at 3 h/8 h"}, "[4]": {"settings": "Zn 24 h, MeSpd 50 mg/kg i.p. at 6 h/12 h"}, "[5]": {"settings": "Zn 24 h, MeSpd 50 mg/kg i.p. at 12 h"}, "[6]": {"settings": "Zn 48 h, MeSpd 50 mg/kg i.p. at 3 h/8 h"}, "[7]": {"settings": "Zn 48 h, MeSpd 50 mg/kg i.p. at 4 h/24 h"}, "[8]": {"settings": "Zn 48 h, MeSpd 50 mg/kg i.p. at 12 h/24 h"}}, "note": "Several values for one entry are separate records, joined by “and”; a condition that tells them apart may be missing. Equal entries are not always repeated."}
{"smiles": "CC(N)CCNCCCCN", "note": "(stereo not drawn) [α-methylspermidine, 1-methylspermidine]", "values": [{"measurement": "accumulation of the analogue in the pancreas", "setting": "[1]; single dose or two doses of 50 mg/kg", "value": "effectively accumulated in the pancreas apparently with no further metabolism"}, {"measurement": "SSAT activity, Pancreas", "setting": "[1]; syngenic rats, zinc 10 mg/kg with methylspermidine 50 mg/kg", "value": "did not influence SSAT activity"}, {"measurement": "SSAT activity, Pancreas", "setting": "[1]; transgenic rats, analogue with zinc vs zinc alone", "value": "only slightly increased SSAT activity"}, {"measurement": "Pancreatic spermidine pool", "setting": "[1]; transgenic rats, zinc 10 mg/kg", "value": "little effect on zinc-induced depletion of spermidine"}, {"measurement": "Edema", "setting": "[2]; [3]", "value": "0 (2×) and 2 (2×)"}, {"measurement": "Necr.", "setting": "[2]; [3]", "value": "0 (0, 0–5%) (2×) and 3 (3, 35–50%) and 4 (4, >50%)"}, {"measurement": "P-amyl", "setting": "[2]; [3]", "value": "2743 U/l and 20380 U/l and 11420 U/l and 2801 U/l"}, {"measurement": "Edema", "setting": "[2]; [4]", "value": "0 (3×) and 1 (2×) and 2 (2×) and 3 and 4"}, {"measurement": "Necr.", "setting": "[2]; [4]", "value": "0 (0, 0–5%) (4×) and 4 (4, >50%) (4×) and 2 (2, 15–35%)"}, {"measurement": "P-amyl", "setting": "[2]; [4]", "value": "2686 U/l and 2153 U/l and 2572 U/l and 30970 U/l and 42250 U/l and 30860 U/l and 28400 U/l and 5110 U/l and 25050 U/l"}, {"measurement": "Edema", "setting": "[2]; [5]", "value": "1 and 2 (2×) and 3"}, {"measurement": "Necr.", "setting": "[2]; [5]", "value": "0 (0, 0–5%) and 4 (4, >50%) (2×) and 3 (3, 35–50%)"}, {"measurement": "P-amyl", "setting": "[2]; [5]", "value": "3048 U/l and 17170 U/l and 31310 U/l and 18960 U/l"}, {"measurement": "Mortality %", "setting": "[2]; Zn 24 h, MeSpd treatment yes", "value": 0, "unit": "%"}, {"measurement": "Number of death animals", "setting": "[2]; Zn 24 h, MeSpd treatment yes, 17 animals", "value": 0}, {"measurement": "Edema", "setting": "[2]; [6]", "value": "3 (2×) and 2"}, {"measurement": "Necr.", "setting": "[2]; [6]", "value": "4 (4, >50%)"}, {"measurement": "P-amyl", "setting": "[2]; [6]", "value": "5867 U/l and 5117 U/l and 29880 U/l"}, {"measurement": "Edema", "setting": "[2]; [7]", "value": "0 (3×) and 1 and 3"}, {"measurement": "Necr.", "setting": "[2]; [7]", "value": "0 (0, 0–5%) (4×) and 4 (4, >50%)"}, {"measurement": "P-amyl", "setting": "[2]; [7]", "value": "1924 U/l and 2740 U/l and 2908 U/l and 2591 U/l and 3943 U/l"}, {"measurement": "Edema", "setting": "[2]; [8]", "value": "3 (2×) and 0 and 2"}, {"measurement": "Necr.", "setting": "[2]; [8]", "value": "4 (4, >50%) (3×) and 0 (0, 0–5%)"}, {"measurement": "P-amyl", "setting": "[2]; [8]", "value": "86840 U/l and 2693 U/l and 36470 U/l and 3382 U/l"}, {"measurement": "Mortality %", "setting": "[2]; Zn 48 h, MeSpd treatment yes", "value": 8, "unit": "%"}]}
